From ChEMBL document CHEMBL5385920, “Discovery of P450-Modified Sesquiterpenoids Levinoids A-D through Global Genome Mining” (J Nat Prod, 2024)
pEC50: −log10 of the molar value. Active and inactive are the calls of the source. The rule behind the calls is not given here.

Assays:
HT-22 [1] = assay: Neuroprotective activity against glutamate-induced cytotoxicity in HT-22 cells assessed as increase in cell viability at 10 ug/ml measured after 24 hrs in presence of glutamate by CCK8 assay; format: functional, cell-based; conditions: Mus musculus, dose 10.0 µg/ml
HT-22 [2] = assay: Neuroprotective activity against glutamate-induced cytotoxicity in HT-22 cells assessed as increase in cell viability at 10 ug/ml measured after 24 hrs in presence of glutamate by CCK8 assay relative to control; format: functional, Mus musculus; conditions: dose 10 µg/ml
HT-22 [3] = assay: Neuroprotective activity against glutamate-induced cytotoxicity in HT-22 cells assessed as increase in cell viability measured after 24 hrs in presence of glutamate by CCK8 assay; format: functional, cell-based; conditions: Mus musculus, HT-22, 24 h

Structure (SMILES) | Activity (HT-22 [1]) | Activity (HT-22 [2]) [%] | pEC50 (HT-22 [3])
CC1=CC[C@@H](C(C)C)[C@@]2(O)C=C(C(=O)O)CC[C@@H]12 | inactive | – | –
CC1=CC[C@@H](C(C)C)[C@H]2C=C(C(=O)O)CC[C@@H]12 | inactive | – | –
CC1=CC[C@@H](C(C)C)[C@H]2C=C(C(=O)O)[C@@H](O)C[C@@H]12 | inactive | – | –
CC1=CC[C@@H](C(C)C)[C@H]2C=C(C(=O)O)CC[C@@]12O | – | 82 | ~4.68
